# What was measured:
# [1] = molecular target: Glucagon-like peptide 1 receptor (Homo sapiens, UniProt P43220); assay: Agonist activity at human GLP-1R expressed in HEK293 cells coexpressing CRE LUC incubated for 5 hrs by luciferase based microplate reader analysis; type: functional, cell-based
# [2] = Metabolic stability in human liver microsomes assessed as half life at 1 uM measured after 5 to 45 mins in presence of NADPH by LC-MS/MS analysis; type: ADME, Microsome; conditions: time 5-45 min
# [3] = Metabolic stability in human liver microsomes assessed as intrinsic clearance at 1 uM measured after 5 to 45 mins in presence of NADPH by LC-MS/MS analysis; type: ADME, Microsome; conditions: time 5-45 min, read-out: CLH
# [4] = Metabolic stability in human liver microsomes assessed as hepatic clearance at 1 uM measured after 5 to 45 mins in presence of NADPH by LC-MS/MS analysis; type: ADME, Microsome; conditions: time 5-45 min
# Cytochrome P450 1A2 = molecular target: T1, Cytochrome P450 1A2 (Homo sapiens, UniProt P05177); assay: Inhibition of CYP1A2 in human liver microsomes incubated for 10 mins in presence of NADPH by LC-MS/MS analysis; type: ADME, Microsome
# T1 sequence (P05177 whole entry): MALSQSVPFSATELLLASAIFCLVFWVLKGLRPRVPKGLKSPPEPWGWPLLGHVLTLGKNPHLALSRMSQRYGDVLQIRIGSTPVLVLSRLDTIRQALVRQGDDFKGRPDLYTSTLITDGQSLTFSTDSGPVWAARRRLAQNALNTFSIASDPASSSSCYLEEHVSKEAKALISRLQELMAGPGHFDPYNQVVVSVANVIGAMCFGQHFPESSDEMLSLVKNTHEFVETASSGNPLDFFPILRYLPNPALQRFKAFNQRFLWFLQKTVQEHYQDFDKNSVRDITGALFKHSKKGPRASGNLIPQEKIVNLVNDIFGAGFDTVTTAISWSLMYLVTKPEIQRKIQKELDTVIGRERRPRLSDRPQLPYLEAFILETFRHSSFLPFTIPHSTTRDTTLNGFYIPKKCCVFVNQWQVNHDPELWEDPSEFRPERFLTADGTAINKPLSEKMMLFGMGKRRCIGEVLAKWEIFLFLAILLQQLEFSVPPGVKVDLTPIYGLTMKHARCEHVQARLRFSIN
# Cytochrome P450 2B6 = molecular target: T2, Cytochrome P450 2B6 (Homo sapiens, UniProt P20813); assay: Inhibition of CYP2B6 in human liver microsomes incubated for 10 mins in presence of NADPH by LC-MS/MS analysis; type: ADME, Microsome
# T2 sequence (P20813 whole entry): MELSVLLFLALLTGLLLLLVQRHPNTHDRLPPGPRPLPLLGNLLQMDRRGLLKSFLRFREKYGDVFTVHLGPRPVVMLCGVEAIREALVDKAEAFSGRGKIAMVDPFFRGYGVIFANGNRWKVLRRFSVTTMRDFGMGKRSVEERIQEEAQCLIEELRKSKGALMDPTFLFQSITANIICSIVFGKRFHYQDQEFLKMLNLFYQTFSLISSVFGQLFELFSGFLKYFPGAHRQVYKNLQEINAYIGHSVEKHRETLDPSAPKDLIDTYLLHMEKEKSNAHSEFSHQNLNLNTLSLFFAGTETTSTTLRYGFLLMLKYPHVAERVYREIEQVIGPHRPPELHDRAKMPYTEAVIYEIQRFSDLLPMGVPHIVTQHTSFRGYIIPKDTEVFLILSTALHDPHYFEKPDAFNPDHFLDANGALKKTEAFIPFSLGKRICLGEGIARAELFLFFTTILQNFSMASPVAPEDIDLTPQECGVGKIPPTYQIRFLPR
# Cytochrome P450 2C8 = molecular target: T3, Cytochrome P450 2C8 (Homo sapiens, UniProt P10632); assay: Inhibition of CYP2C8 in human liver microsomes incubated for 20 mins in presence of NADPH by LC-MS/MS analysis; type: ADME, Microsome
# T3 sequence (P10632 whole entry): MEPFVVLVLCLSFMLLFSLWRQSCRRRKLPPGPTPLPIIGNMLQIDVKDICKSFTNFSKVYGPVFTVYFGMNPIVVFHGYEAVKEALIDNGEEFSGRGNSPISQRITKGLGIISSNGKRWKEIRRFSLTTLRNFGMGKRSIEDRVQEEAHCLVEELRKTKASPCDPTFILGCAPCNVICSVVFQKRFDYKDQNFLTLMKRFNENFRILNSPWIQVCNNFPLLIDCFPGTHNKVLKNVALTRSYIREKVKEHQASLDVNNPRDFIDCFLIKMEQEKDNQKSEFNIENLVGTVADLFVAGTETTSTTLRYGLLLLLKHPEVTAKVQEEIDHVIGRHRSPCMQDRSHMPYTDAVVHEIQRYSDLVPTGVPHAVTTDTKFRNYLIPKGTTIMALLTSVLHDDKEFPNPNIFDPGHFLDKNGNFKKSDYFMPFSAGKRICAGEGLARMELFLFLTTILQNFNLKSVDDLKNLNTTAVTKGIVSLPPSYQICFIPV
# Cytochrome P450 2C9 = Cytochrome P450 2C9 (Homo sapiens, UniProt P11712); assay: Inhibition of CYP2C9 in human liver microsomes incubated for 10 mins in presence of NADPH by LC-MS/MS analysis; type: ADME, Microsome
# Cytochrome P450 2C19 = Cytochrome P450 2C19 (Homo sapiens, UniProt P33261); assay: Inhibition of CYP2C19 in human liver microsomes incubated for 45 mins in presence of NADPH by LC-MS/MS analysis; type: ADME, Microsome
# Cytochrome P450 2D6 = Cytochrome P450 2D6 (Homo sapiens, UniProt P10635); assay: Inhibition of CYP2D6 in human liver microsomes incubated for 20 mins in presence of NADPH by LC-MS/MS analysis; type: ADME, Microsome
# Cytochrome P450 3A4 = Cytochrome P450 3A4 (Homo sapiens, UniProt P08684); assay: Inhibition of CYP3A4 in human liver microsomes using testosterone as substrate incubated for 5 mins in presence of NADPH by LC-MS/MS analysis; type: ADME, Microsome
# [5] = Cmax in Sprague-Dawley rat at 10 mg/kg, po measured up to 24 hrs by LC-MS/MS analysis; type: ADME, organism-based; conditions: in vivo
# [6] = Tmax in Sprague-Dawley rat at 10 mg/kg, po measured up to 24 hrs by LC-MS/MS analysis; type: ADME, organism-based; conditions: in vivo
# [7] = AUC last in Sprague-Dawley rat at 10 mg/kg, po measured up to 24 hrs by LC-MS/MS analysis; type: ADME, organism-based; conditions: in vivo
# Chain of Glucagon-like peptide 1 receptor (P43220 whole entry): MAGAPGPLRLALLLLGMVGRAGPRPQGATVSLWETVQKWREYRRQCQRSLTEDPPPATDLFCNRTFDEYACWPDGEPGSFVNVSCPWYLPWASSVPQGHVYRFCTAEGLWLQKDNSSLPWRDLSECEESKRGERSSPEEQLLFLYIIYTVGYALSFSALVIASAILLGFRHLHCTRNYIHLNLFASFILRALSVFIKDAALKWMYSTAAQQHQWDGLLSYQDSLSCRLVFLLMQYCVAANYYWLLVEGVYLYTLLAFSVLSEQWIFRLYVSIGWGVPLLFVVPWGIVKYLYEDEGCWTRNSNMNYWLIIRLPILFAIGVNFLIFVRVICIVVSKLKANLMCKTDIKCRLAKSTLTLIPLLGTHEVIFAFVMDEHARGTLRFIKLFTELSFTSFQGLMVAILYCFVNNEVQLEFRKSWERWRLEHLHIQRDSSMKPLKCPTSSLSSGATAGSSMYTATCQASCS
# Chain of Cytochrome P450 3A4 (P08684 whole entry): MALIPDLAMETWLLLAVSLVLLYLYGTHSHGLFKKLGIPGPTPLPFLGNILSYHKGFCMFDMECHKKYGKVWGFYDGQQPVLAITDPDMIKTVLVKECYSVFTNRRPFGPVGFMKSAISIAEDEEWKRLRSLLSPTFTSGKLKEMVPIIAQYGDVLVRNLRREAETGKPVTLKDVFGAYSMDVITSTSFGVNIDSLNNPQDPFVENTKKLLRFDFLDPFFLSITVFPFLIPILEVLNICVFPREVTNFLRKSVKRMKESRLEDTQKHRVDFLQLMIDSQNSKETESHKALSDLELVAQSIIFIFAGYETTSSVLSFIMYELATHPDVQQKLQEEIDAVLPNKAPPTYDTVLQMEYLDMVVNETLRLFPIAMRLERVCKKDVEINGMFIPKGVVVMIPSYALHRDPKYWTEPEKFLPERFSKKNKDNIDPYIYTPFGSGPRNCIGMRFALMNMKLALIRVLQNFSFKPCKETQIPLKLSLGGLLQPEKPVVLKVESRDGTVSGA
# Chain of Cytochrome P450 2D6 (P10635 whole entry): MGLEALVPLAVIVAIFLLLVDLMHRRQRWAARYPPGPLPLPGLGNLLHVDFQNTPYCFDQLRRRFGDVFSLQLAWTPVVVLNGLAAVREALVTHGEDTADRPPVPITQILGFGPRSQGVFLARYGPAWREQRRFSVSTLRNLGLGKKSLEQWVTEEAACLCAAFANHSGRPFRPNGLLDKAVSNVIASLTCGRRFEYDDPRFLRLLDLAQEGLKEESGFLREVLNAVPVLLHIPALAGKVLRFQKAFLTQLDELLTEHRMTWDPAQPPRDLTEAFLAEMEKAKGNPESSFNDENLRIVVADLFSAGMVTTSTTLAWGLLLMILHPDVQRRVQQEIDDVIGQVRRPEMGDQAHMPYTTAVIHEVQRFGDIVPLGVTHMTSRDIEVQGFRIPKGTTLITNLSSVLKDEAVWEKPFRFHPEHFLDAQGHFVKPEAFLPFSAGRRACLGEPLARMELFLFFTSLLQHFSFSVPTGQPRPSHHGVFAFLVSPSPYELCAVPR
# Chain of Cytochrome P450 2C9 (P11712 whole entry): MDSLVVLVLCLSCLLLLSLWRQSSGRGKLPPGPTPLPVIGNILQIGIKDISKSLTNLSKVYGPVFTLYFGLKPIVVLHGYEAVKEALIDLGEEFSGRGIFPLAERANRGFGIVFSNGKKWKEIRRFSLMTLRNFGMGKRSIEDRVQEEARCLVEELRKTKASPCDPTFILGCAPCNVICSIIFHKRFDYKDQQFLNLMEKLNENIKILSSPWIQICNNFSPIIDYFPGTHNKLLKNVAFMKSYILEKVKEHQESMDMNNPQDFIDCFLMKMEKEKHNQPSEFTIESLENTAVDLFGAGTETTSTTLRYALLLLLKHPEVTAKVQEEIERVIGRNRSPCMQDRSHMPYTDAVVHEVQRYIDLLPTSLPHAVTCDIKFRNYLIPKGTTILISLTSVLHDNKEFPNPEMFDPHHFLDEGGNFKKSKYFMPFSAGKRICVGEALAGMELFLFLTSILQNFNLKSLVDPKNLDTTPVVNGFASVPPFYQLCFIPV
# Chain of Cytochrome P450 2C19 (P33261 whole entry): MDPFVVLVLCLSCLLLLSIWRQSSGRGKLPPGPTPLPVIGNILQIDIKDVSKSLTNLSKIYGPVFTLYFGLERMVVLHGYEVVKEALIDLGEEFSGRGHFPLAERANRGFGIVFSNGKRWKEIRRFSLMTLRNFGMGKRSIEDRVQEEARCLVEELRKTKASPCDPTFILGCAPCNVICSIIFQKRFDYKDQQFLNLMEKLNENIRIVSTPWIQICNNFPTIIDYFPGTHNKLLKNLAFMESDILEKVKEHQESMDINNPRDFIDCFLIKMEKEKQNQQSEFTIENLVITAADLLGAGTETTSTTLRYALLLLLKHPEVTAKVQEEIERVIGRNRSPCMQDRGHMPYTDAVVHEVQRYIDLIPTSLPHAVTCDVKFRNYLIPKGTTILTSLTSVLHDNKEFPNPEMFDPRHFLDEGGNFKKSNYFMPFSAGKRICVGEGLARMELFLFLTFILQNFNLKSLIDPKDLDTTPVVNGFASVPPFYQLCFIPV
smiles,measurement,setting,value
Cn1ccc2ccc(COc3cccc(-c4ccc(Cc5nc6ccc(C(=O)O)cc6n5C[C@@H]5CCO5)c(F)c4)n3)cc21,EC50,[1],198 nM
COCCn1c(Cc2ccc(-c3cccc(OCc4ccc(Cl)c5ccoc45)n3)cc2F)nc2ccc(C(=O)O)cc21,EC50,[1],359 nM
Cc1cc(-c2cccc(OCc3ccc(C#N)cc3F)n2)ccc1Cc1nc2ccc(C(=O)O)cc2n1C[C@@H]1CCO1,EC50,[1],13.5 nM
N#Cc1ccc(COc2cccc(N3CCC(Cc4nc5ccc(C(=O)O)cc5n4C[C@@H]4CCO4)CC3)n2)c(F)c1,EC50,[1],85.5 nM
N#Cc1ccc(COc2cccc(C3CCN(Cc4nc5ccc(C(=O)O)cc5n4C[C@@H]4CCO4)CC3)n2)c(F)c1 [DANUGLIPRON],half-life at 1 µM,[2],1.8 h
same,CLint scaled at 1 µM,[3],16 mL/min/kg
same,CLhep predicted at 1 µM,[4],9.04 mL/min/kg
same,IC50,Cytochrome P450 1A2,> 30000 nM
same,IC50,Cytochrome P450 2B6,> 30000 nM
same,IC50,Cytochrome P450 2C8,3340 nM
same,IC50,Cytochrome P450 2C9,> 30000 nM
same,IC50,Cytochrome P450 2C19,> 30000 nM
same,IC50,Cytochrome P450 2D6,> 30000 nM
same,IC50,Cytochrome P450 3A4,> 30000 nM
same,Cmax,[5],197 ng/mL
same,Tmax,[6],0.63 h
same,AUC(0-t) at 24 h,[7],714 ng·h/mL

# — ChEMBL document CHEMBL6134892, “Discovery and Evaluation of DA-302168S as an Efficacious Oral Small-Molecule Glucagon-Like Peptide-1 Receptor Agonist” (J Med Chem, 2025)
